Measurements: US20140329863A1 (priority 2011, published 2014)

How the values were obtained:
CYP2C9 [1] = biological target: T1, CYP2C9 (Homo sapiens, UniProt P11712); assay: CYP phenotyping in human liver microsomes, sulphaphenazol; type: in vitro ADME; details: for CYP Involvement: CYP2C9, NADPH + Sulphaphenazol; for % Disappearance / Measured Conc. / Δ % Disappearance: reversible incubation condition, NADPH + Sulphaphenazol
T1 construct: tissue BD Biosciences; host or cells: pooled human liver microsomes
T1 sequence (P11712 whole entry): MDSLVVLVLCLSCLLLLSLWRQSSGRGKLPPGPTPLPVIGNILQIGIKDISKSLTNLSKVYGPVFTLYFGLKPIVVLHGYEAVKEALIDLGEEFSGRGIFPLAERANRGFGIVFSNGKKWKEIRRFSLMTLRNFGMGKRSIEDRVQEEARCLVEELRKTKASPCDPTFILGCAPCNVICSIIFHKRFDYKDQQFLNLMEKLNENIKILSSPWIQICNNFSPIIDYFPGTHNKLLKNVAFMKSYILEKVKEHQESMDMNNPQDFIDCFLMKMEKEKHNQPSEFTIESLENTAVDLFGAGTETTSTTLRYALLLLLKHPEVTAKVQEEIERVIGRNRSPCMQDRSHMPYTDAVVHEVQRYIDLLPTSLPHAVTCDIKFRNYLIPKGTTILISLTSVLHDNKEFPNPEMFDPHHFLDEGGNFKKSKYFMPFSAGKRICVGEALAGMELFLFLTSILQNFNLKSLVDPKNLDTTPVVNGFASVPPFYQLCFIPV

CYP1A2 [2] = biological target: T2, CYP1A2 (Homo sapiens, UniProt P05177); assay: CYP phenotyping in human liver microsomes, furafylline; type: in vitro ADME; details: for CYP Involvement: CYP1A2, NADPH + Furafylline; for % Disappearance / Measured Conc. / Δ % Disappearance: irreversible incubation condition, NADPH + Furafylline
T2 construct: tissue BD Biosciences; host or cells: pooled human liver microsomes
T2 sequence (P05177 1-516): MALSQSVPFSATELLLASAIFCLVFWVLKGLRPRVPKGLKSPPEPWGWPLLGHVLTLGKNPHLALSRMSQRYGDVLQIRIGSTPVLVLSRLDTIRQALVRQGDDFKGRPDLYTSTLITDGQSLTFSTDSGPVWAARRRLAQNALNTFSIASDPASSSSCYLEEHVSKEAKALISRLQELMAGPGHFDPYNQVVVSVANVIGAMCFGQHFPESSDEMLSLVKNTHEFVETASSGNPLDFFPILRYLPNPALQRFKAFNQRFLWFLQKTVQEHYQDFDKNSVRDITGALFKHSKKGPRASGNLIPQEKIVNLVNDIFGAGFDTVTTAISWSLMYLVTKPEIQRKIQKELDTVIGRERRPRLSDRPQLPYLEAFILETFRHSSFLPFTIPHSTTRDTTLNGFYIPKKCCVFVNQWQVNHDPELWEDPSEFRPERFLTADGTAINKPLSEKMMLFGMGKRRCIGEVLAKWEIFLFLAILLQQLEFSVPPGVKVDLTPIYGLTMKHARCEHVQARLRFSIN

in vitro [3] = details: rat, microsomes, pH 7.4
[4] = Toleration studies in mice; details: 210 mg/kg/day for 14 days, mice
in vitro [5] = details: Sprague-Dawley (rat), beagle (dog), CD-1 (mouse), human, plasma
in vitro [6] = details: rat, plasma, pH 7.4
CYP2C9 [7] = biological target: T1, CYP2C9; assay: Cytochrome P450 phenotyping in human liver microsomes, CYP2C9 (sulfaphenazole); type: in vitro ADME; details: HLM, 5 μM sulfaphenazole
Source text: (§1) % Disappearance=[(TC-NADPH TC+NADPH)/TC-NADPH]×100
(§2) for which TC is the test compound.

in vitro [8] = details: plasma
in vitro [9] = details: dog, plasma, pH 7.4
in vitro [10] = details: human, plasma
CYP1A2 [11] = biological target: T2, CYP1A2; assay: Cytochrome P450 phenotyping in human liver microsomes, CYP1A2 (furafylline); type: in vitro ADME; details: HLM, 10 μM furafylline
Source text: as §1, §2

CYP2D6 = biological target: T3, CYP2D6 (Homo sapiens, UniProt P10635); assay: Cytochrome P450 phenotyping in human liver microsomes, CYP2D6 (quinidine); type: in vitro ADME; details: HLM, 1 μM quinidine
T3 construct: tissue BD Biosciences; host or cells: pooled human liver microsomes
T3 sequence (P10635 whole entry): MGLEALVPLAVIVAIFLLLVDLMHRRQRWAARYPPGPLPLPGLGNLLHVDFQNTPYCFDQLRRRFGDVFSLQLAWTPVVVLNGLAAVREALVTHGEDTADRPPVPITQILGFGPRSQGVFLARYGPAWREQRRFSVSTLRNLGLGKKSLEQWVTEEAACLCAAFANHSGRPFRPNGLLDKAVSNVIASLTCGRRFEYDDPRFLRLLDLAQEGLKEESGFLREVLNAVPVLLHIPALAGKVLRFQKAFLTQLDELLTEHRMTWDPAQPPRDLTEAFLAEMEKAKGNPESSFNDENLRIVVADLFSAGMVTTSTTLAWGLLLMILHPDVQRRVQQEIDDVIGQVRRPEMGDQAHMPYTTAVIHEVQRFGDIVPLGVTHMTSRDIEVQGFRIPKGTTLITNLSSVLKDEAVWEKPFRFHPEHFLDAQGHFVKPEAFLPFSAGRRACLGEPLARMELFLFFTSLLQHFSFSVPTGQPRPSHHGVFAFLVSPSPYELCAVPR
Source text: as §1, §2

CYP3A4 = biological target: T4, CYP3A4 (Homo sapiens, UniProt P08684); assay: Cytochrome P450 phenotyping in human liver microsomes, CYP3A4 (ketoconazole); type: in vitro ADME; details: HLM, 1 μM ketoconazole
T4 construct: tissue BD Biosciences; host or cells: pooled human liver microsomes
T4 sequence (P08684 whole entry): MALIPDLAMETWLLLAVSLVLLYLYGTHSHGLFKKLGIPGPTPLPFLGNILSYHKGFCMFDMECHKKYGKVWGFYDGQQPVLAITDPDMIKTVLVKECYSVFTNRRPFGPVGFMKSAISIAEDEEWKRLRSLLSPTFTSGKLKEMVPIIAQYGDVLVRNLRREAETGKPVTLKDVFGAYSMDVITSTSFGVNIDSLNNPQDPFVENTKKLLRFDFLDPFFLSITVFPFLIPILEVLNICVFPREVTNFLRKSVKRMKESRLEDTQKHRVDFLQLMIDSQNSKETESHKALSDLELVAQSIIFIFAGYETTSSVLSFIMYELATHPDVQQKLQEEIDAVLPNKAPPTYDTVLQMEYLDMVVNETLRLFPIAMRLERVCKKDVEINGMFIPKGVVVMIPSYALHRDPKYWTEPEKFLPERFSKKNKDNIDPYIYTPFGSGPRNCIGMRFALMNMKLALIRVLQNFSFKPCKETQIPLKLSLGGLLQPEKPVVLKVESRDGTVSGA
Source text: as §1, §2

CYP2C19 = CYP2C19 (Homo sapiens, UniProt P33261); details: HLM, 5 μM (+)-N-3-benzylnirvanol
CYP2C19, sequence (P33261 whole entry): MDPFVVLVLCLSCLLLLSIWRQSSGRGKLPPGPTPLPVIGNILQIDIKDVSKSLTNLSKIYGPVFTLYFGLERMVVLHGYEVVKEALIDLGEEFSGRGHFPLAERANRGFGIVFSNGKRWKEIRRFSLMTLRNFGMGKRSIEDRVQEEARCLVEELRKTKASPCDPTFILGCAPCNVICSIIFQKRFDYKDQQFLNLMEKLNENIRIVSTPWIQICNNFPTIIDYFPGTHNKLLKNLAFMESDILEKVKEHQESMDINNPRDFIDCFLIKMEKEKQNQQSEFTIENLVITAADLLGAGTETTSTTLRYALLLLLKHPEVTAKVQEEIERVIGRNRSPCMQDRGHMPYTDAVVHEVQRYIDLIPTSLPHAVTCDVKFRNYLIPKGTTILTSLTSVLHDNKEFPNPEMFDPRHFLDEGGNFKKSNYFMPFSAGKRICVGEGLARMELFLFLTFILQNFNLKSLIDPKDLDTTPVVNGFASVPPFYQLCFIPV

Structure (SMILES)	Percentage binding, Dog plasma, 1 μM (Binding in dog plasma) [%]	Percentage binding, Dog plasma, 10 μM (Binding in dog plasma) [%]	CYP Involvement (CYP2C9 [1])	% Disappearance (CYP2C9 [1]) [%]	Measured Conc. (CYP2C9 [1]) [µM]	Δ % Disappearance (CYP2C9 [1])	CYP Involvement (CYP1A2 [2])	% Disappearance (CYP1A2 [2])	Measured Conc. (CYP1A2 [2]) [µM]	Δ % Disappearance (CYP1A2 [2]) [%]	further results
Cc1cccc(Nc2nc(-c3ccc(-c4ccccc4)cc3)cs2)n1 [IND24, (4-Biphenyl-4-yl-thiazol-2-yl)-(6-methyl-pyridin-2-yl)-amine]	95.1 ± 1.38	95.0 ± 0.32	Unlikely (unlikely for values <5)	14	0.566	0 (−14) %	Unlikely (unlikely for values <5)	0 (−23) %	0.766	0	half-life at 1 μM (in vitro [3]): > 1 h; Toleration [4]: well tolerated
Cc1ccnc(Nc2nc(-c3ccc(-c4ccccn4)s3)cs2)c1 [IND81, (4-Methyl-pyridin-2-yl)-[4-(5-pyridin-2-yl-thiophen-2-yl)-thiazol-2-yl]-amine]	94.4 ± 1.88	94.7 ± 1.03	Unlikely (unlikely for values <5)	64	0.238	1.8%	Unlikely (unlikely for values <5)	41%	0.534	43	fraction unbound (in vitro [5]): 0.57; fraction unbound at 4 h (in vitro [6]; Sprague-Dawley): ~0.57; fraction unbound at 4 h (in vitro [6]): 0.04 to 0.07; involvement of CYP2C9 in metabolism (CYP2C9 [7]): unlikely to be involved; fraction unbound at 4 h (in vitro [8]; CD-1, mouse, pH 7.4, free fraction in plasma): ~0.57; fraction unbound at 4 h (in vitro [8]; mouse, pH 7.4, free fraction in plasma): 0.06 to 0.09; fraction unbound at 4 h (in vitro [8]; mouse, pH 7.4, plasma protein binding, 1 and 10 μM): 0.04 to 0.07; fraction unbound at 4 h (in vitro [9]; beagle): ~0.57; fraction unbound at 4 h (in vitro [9]): 0.04 to 0.07; fraction unbound at 4 h (in vitro [10]; pH 7.4, free fraction in plasma): ~0.57; fraction unbound at 4 h (in vitro [10]; pH 7.4, plasma protein binding, 1 and 10 μM): 0.04 to 0.07; involvement of CYP1A2 in metabolism (CYP1A2 [11]): most likely to be involved; involvement of CYP2D6 in metabolism (CYP2D6): most likely to be involved; involvement of CYP3A4 in metabolism (CYP3A4): most likely to be involved; involvement of CYP2C19 in metabolism (CYP2C19): might be involved to a smaller extent
